Results as given in patent US10745382B2 (BRISTOL-MYERS SQUIBB COMPANY, priority 2015, dated 2020).

molecular target: T1, PD-1/PD-L1 (Homo sapiens, UniProt Q9NZQ7); test: PD-1/PD-L1 Homogenous Time-Resolved Fluorescence (HTRF) binding assay; settings: PD-L1-His 10 nM, PD-1-Ig 20 nM; numeric IC50, cell prints uM; read-out: Range or IC50
T1 construct: made in house; host or cells: HEK293T
Protocol: The ability of the compounds of formula (I) to bind to PD-L1 was investigated using a PD-1/PD-L1 Homogenous Time-Resolved Fluorescence (HTRF) binding assay.
Homogenous Time-Resolved Fluorescence (HTRF) Binding Assay.
All binding studies were performed in an HTRF assay buffer consisting of dPBS supplemented with 0.1% […] bovine serum albumin and 0.05% (v/v) Tween-20. […] HTRF detection was achieved using europium crypate-labeled anti-Ig (1 nM final) and allophycocyanin (APC) labeled anti-His (20 nM final). Antibodies were diluted in HTRF detection buffer and 5 μl was dispensed on top of the binding reaction. […] Additional binding assays were established between the human proteins PD-1-Ig/PD-L2-His (20 & 5 nM, respectively) and CD80-His/PD-L1-Ig (100 & 10 nM, respectively). […]

T1 sequence (Q9NZQ7 with tags, fused parts or gaps): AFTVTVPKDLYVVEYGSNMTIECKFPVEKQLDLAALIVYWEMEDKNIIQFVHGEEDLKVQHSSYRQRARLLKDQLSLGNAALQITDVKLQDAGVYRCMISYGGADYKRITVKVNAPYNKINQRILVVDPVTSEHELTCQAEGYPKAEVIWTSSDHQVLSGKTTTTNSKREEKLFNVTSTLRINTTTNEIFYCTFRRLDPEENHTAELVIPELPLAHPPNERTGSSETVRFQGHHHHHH

Row | IC50 [µM] | SMILES
1 | 2 | Cc1c(OCCCN2CC[C@@H](O)C2)cccc1-c1cccc(OCc2cc(O)c(CN(C)C)cc2Cl)c1C [Example 2123, (R)-1-(3-((3′-((2-chloro-4-((dimethylamino)methyl)-5-hydroxybenzyl)oxy)-2,2′-dimethyl-[1,1′-biphenyl]-3-yl)oxy)propyl)pyrrolidin-3-ol]

same assay, conditions: PD-L1-His 10 nM, PD-1-Ig 20 nM; numeric IC50; read-out: Range or IC50

Row | IC50 [µM] | SMILES
2 | 0.003 | Cc1c(COc2cc(OCc3cncc(C#N)c3)c(CN[C@@H](CO)C(=O)O)cc2Cl)cccc1-c1ccc2c(c1C)OCCO2 [Example 3043, (2S)-2-((5-chloro-2-((5-cyanopyridin-3-yl)methoxy)-4-((2-methyl-3-(5-methyl-2,3-dihydrobenzo[b][1,4]dioxin-6-yl)benzyl)oxy)benzyl)amino)-3-hydroxypropanoic Acid]
3 | 0.003 | Cc1c(OCCCN2CCOCC2)cccc1-c1cccc(COc2cc(OCc3cncc(C#N)c3)c(CN3CCCC[C@H]3C(=O)O)cc2Cl)c1Cl [Example 2309, (S)-1-(5-chloro-4-((2-chloro-2′-methyl-3′-(3-morpholinopropoxy)-[1,1′-biphenyl]-3-yl)methoxy)-2-((5-cyanopyridin-3-yl)methoxy)benzyl)piperidine-2-carboxylic Acid]

same assay, conditions: PD-L1-His 10 nM, PD-1-Ig 20 nM; value given as range class; read-out: Range or IC50

Row | IC50 [µM] | SMILES
4 | 0.00021 to 0.01 | COC(=O)C1(O)CCN(CCCOc2cccc(-c3cccc(COc4cc(OCc5cncc(S(C)(=O)=O)c5)c(CN[C@](C)(CO)C(=O)O)cc4Cl)c3C)c2C)C1 (stereo partly drawn) [Example 1055, (2R)-2-((5-chloro-4-((3′-(3-(3-hydroxy-3-(methoxycarbonyl)pyrrolidin-1-yl)propoxy)-2,2′-dimethyl-[1,1′-biphenyl]-3-yl)methoxy)-2-((5-(methylsulfonyl)pyridin-3-yl)methoxy)benzyl)amino)-3-hydroxy-2-methylpropanoic Acid]
5 | 0.00021 to 0.01 | Cc1c(COc2cc(OCc3cncc(C#N)c3)c(CNC3(CO)CC3)cc2Cl)cccc1-c1cccc(OCCCN2CC[C@@H](O)C2)c1Cl [Example 2077, (R)-5-((4-chloro-5-((2′-chloro-3′-(3-(3-hydroxypyrrolidin-1-yl)propoxy)-2-methyl-[1,1′-biphenyl]-3-yl)methoxy)-2-(((1-(hydroxymethyl)cyclopropyl)amino)methyl)phenoxy)methyl)nicotinonitrile]
6 | 0.00021 to 0.01 | Cc1c(COc2cc(OCc3cncc(C#N)c3)c(CN3CCCC[C@H]3C(=O)O)cc2Cl)cccc1-c1cccc(OCCCNCCc2ccccn2)c1C [Example 2225, (2S)-1-(5-chloro-2-((5-cyanopyridin-3-yl)methoxy)-4-((2,2′-dimethyl-3′-(3-(2-(pyridin-2-yl)ethylamino)propoxy)biphenyl-3-yl)methoxy)benzyl)piperidine-2-carboxylic Acid]
7 | 0.00021 to 0.01 | Cc1c(COc2cc(OCc3cncc(C#N)c3)c(CN3CCCC[C@H]3C(=O)O)cc2Cl)cccc1-c1cccc(OCCCN2CCOCC2CO)c1C (stereo partly drawn) [Example 3050, (2S)-1-(5-chloro-2-((5-cyanopyridin-3-yl)methoxy)-4-((3′-(3-(3-(hydroxymethyl)morpholino)propoxy)-2,2′-dimethyl-[1,1′-biphenyl]-3-yl)methoxy)benzyl)piperidine-2-carboxylic Acid]
8 | 0.1 to 2 | COc1cc(OCc2cccc(-c3cccc(OCCCN4CC[C@@H](O)C4)c3C)c2C)c(Cl)cc1C=O [Example 3032, (R)-5-chloro-4-((3′-(3-(3-hydroxypyrrolidin-1-yl)propoxy)-2,2′-dimethyl-[1,1′-biphenyl]-3-yl)methoxy)-2-methoxybenzaldehyde]
9 | 0.00021 to 0.01 | CC(=O)NC1CCN(CCCOc2cccc(-c3cccc(COc4cc(OCc5cncc(C#N)c5)c(CN5CCCC[C@H]5C(=O)O)cc4Cl)c3C)c2Cl)CC1 [Example 1078, (S)-1-(4-((3′-(3-(4-acetamidopiperidin-1-yl)propoxy)-2′-chloro-2-methyl-[1,1′-biphenyl]-3-yl)methoxy)-5-chloro-2-((5-cyanopyridin-3-yl)methoxy)benzyl)piperidine-2-carboxylic Acid]
10 | 0.00021 to 0.01 | Cc1c(COc2cc(OCc3cncc(C#N)c3)c(CN3CCCC[C@H]3C(=O)O)cc2Cl)cccc1-c1cccc(OCCCN2C[C@H](O)C[C@H]2C(=O)O)c1C [Example 2241, (2S)-1-(4-((3′-(3-((2S,4R)-2-carboxy-4-hydroxypyrrolidin-1-yl)propoxy)-2,2′-dimethylbiphenyl-3-yl)methoxy)-5-chloro-2-((5-cyanopyridin-3-yl)methoxy)benzyl)piperidine-2-carboxylic Acid]
11 | 0.00021 to 0.01 | COc1ccccc1N1CCN(CCCOc2cccc(-c3cccc(COc4cc(OCc5cncc(C#N)c5)c(CN5CCCC[C@H]5C(=O)O)cc4Cl)c3C)c2C)CC1 [Example 2219, (2S)-1-(5-chloro-2-((5-cyanopyridin-3-yl)methoxy)-4-((3′-(3-(4-(2-methoxyphenyl)piperazin-1-yl)propoxy)-2,2′-dimethylbiphenyl-3-yl)methoxy)benzyl)piperidine-2-carboxylic Acid]
12 | 0.00021 to 0.01 | CC(=O)N[C@@H]1CCN(CCCOc2cccc(-c3cccc(COc4cc(OCc5cncc(C#N)c5)c(CN[C@@](C)(CO)C(=O)O)cc4Cl)c3C)c2C)C1 [Example 2270, (2S)-2-(4-((3′-(3-((R)-3-acetamidopyrrolidin-1-yl)propoxy)-2,2′-dimethylbiphenyl-3-yl)methoxy)-5-chloro-2-((5-cyanopyridin-3-yl)methoxy)benzylamino)-3-hydroxy-2-methylpropanoic Acid]
13 | 0.00021 to 0.01 | Cc1c(COc2cc(OCc3cncc(C#N)c3)c(CN3CCCC[C@H]3C(=O)O)cc2Cl)cccc1-c1cccc(OCCCN2CCC(O)(c3ccccc3)C2)c1C (stereo partly drawn) [Example 3040, (2S)-1-(5-chloro-2-((5-cyanopyridin-3-yl)methoxy)-4-((3′-(3-(3-hydroxy-3-phenylpyrrolidin-1-yl)propoxy)-2,2′-dimethyl-[1,1′-biphenyl]-3-yl)methoxy)benzyl)piperidine-2-carboxylic Acid]
14 | 0.00021 to 0.01 | CCC(CO)(CO)NCc1cc(Cl)c(OCc2cccc(-c3cccc(OCCCN4CC[C@@H](O)C4)c3C)c2C)cc1OCc1cncc(C#N)c1 [Example 2280, (R)-5-((4-chloro-2-(((1-hydroxy-2-(hydroxymethyl)butan-2-yl)amino)methyl)-5-((3′-(3-(3-hydroxypyrrolidin-1-yl)propoxy)-2,2′-dimethyl-[1,1′-biphenyl]-3-yl)methoxy)phenoxy)methyl)nicotinonitrile]
15 | 0.00021 to 0.01 | Cc1c(COc2cc(OCc3cncc(C#N)c3)c(CN3CCCC[C@H]3C(=O)O)cc2Cl)cccc1-c1cccc(OCCCN2CCCC(C(N)=O)C2)c1C (stereo partly drawn) [Example 2207, (2S)-1-(4-((3′-(3-(3-carbamoylpiperidin-1-yl)propoxy)-2,2′-dimethylbiphenyl-3-yl)methoxy)-5-chloro-2-((5-cyanopyridin-3-yl)methoxy)benzyl)piperidine-2-carboxylic Acid]
16 | 0.00021 to 0.01 | Cc1c(COc2cc(OCc3cncc(C#N)c3)c(CN3CCC[C@H](C(=O)O)C3)cc2Cl)cccc1-c1cccc(OCCCN2CCC[C@H](C(=O)O)C2)c1C [Example 2259, (3S)-1-(3-(3′-((4-(((S)-3-carboxypiperidin-1-yl)methyl)-2-chloro-5-((5-cyanopyridin-3-yl)methoxy)phenoxy)methyl)-2,2′-dimethylbiphenyl-3-yloxy)propyl)piperidine-3-carboxylic Acid]
17 | 0.00021 to 0.01 | Cc1c(COc2cc(OCc3cncc(C(=N)N4CCCC(CO)C4)c3)c(CNC(C)(CO)CO)cc2Cl)cccc1-c1cccc(OCCCN2CCCC(CO)C2)c1Cl (stereo not drawn) [Example 2099, 2-((5-chloro-4-((2′-chloro-3′-(3-(3-(hydroxymethyl)piperidin-1-yl)propoxy)-2-methyl-[1,1′-biphenyl]-3-yl)methoxy)-2-((5-((3-(hydroxymethyl)piperidin-1-yl)(imino)methyl)pyridin-3-yl)methoxy)benzyl)amino)-2-methylpropane-1,3-diol]
18 | 0.00021 to 0.01 | Cc1c(CCCCN2CC[C@@H](O)C2)cccc1-c1cccc(COc2cc(OCc3cncc(C#N)c3)c(CN[C@@H](CN)C(=O)O)cc2Cl)c1C [Example 4069, (S)-3-amino-2-((5-chloro-2-((5-cyanopyridin-3-yl)methoxy)-4-((3′-(4-((R)-3-hydroxypyrrolidin-1-yl)butyl)-2,2′-dimethyl-[1,1′-biphenyl]-3-yl)methoxy)benzyl)amino)propanoic Acid]
19 | 0.00021 to 0.01 | Cc1c(COc2cc(OCc3cncc(C#N)c3)c(CN3CCCC[C@H]3C(=O)O)cc2Cl)cccc1-c1cccc(OCCCN2CCC(O)(C(=O)O)CC2)c1Cl [Example 1097, (S)-1-(4-((3′-(3-(4-carboxy-4-hydroxypiperidin-1-yl)propoxy)-2′-chloro-2-methyl-[1,1′-biphenyl]-3-yl)methoxy)-5-chloro-2-((5-cyanopyridin-3-yl)methoxy)benzyl)piperidine-2-carboxylic Acid]
20 | 0.00021 to 0.01 | Cc1c(COc2cc(OCc3cncc(C#N)c3)c(CN[C@@H](Cc3ccccc3)C(=O)O)cc2Cl)cccc1-c1cccc(OCCCN2CC[C@@H](O)C2)c1C [Example 4152, (5-chloro-2-((5-cyanopyridin-3-yl)methoxy)-4-((3′-(3-((R)-3-hydroxypyrrolidin-1-yl)propoxy)-2,2′-dimethyl-[1,1′-biphenyl]-3-yl)methoxy)benzyl)-L-phenylalanine]
21 | 0.00021 to 0.01 | CC(=O)NC1CCN(CCCOc2cccc(-c3cccc(COc4cc(OCc5cncc(C#N)c5)c(CN5CCCC[C@H]5C(=O)O)cc4Cl)c3Cl)c2Cl)C1 (stereo partly drawn) [Example 2047, (2S)-1-(4-((3′-(3-(3-acetamidopyrrolidin-1-yl)propoxy)-2,2′-dichloro-[1,1′-biphenyl]-3-yl)methoxy)-5-chloro-2-((5-cyanopyridin-3-yl)methoxy)benzyl)piperidine-2-carboxylic Acid]
